Source: patent US12404260B2, “Pyridine rings containing derivatives as MALT1 inhibitors” (Janssen Pharmaceutica NV, priority 2019, dated 2025)

Assays:
[1] = system: secretion of IL10 by OCI-LY3 ABC-DLBCL cells; assay: Human IL10 Mesoscale assay (OCI-LY3); type: cell-based; conditions: 24 h incubation, IL10 in supernatant
Method: (§1) NFKB signaling regulates the secretion of multiple cytokines, including IL6 and IL10. Secretion of the cytokines IL6 and IL10 by OCI-LY3 ABC-DLBCL cells was measured using a mesoscale assay. Inhibition of NFKB signaling by MALT1 inhibitors results in a decrease of IL6/10 secretion.
(§2) OCI-LY3 cells were propagated in RPMI-1640 (Sigma Aldrich) supplemented with 10% fetal bovine serum (HyClone), 1 mM sodium pyruvate (Invitrogen), 2 mM L-glutamine (Sigma Aldrich) and 1% PenStrep (Sigma Aldrich). Cell passage number should not exceed 30. Cells should be kept between 0.5-2.5 million cells per mL during culturing and cells should be supplemented every 2-3 days with fresh 50 μM beta-mercaptoethanol. No beta-mercaptoethanol was used during the mesoscale assay.
(§3) For the Mesoscale assay, 100,000 OCI-LY3 cells were seeded per well into black-colored 96-well plates with clear bottom (Corning #3904) and test compounds were added in 9 dilution steps (1:2) ranging from 15 μM to 58.6 nM (final DMSO concentration 0.3%). DMSO control wells were used to determine the maximum signal (High Control (HC)). Treatment with the BTK inhibitor RN486 in a dose range from 30 nM to […] (9 dilutions of 1:2) served as a positive control for NFKB pathway inhibition and was used to determine the maximum inhibition (Low Control (LC)). Compounds and cells were incubated for 24 h at 37° C. and 5% CO2 (assay volume is 150 μL). After 24 h of incubation 50 μL of the supernatant was transferred to a MSD plate (V-Plex Proinflammation Panel 1 (human) kit, Mesoscale (MSD)) and incubated for 2 h with vigorous shaking (600 rpm) at room temperature. Following incubation, plates were washed 3× with PBS+0.05% Tween-20 and 25 μL detection antibody solution (IL6 & IL10 antibodies in diluent 3 (MSD)) was added per well followed by 2 h of incubation with vigorous shaking (600 rpm) at room temperature. After 3× washes with PBS+0.05% Tween-20, plates were incubated with 150 μL 2× Read Buffer T and read on SECTOR imager.

[2] = molecular target: T1, full-length MALT1 protein (Strep-MALT1(1-824)-His) (Homo sapiens, UniProt Q9UDY8); assay: MALT1 Biochemical Protease Assay; conditions: 10 nM FL MALT1, 200 μM Ac-LRSR-AMC, 50 min pre-incubation, 4 h at RT; read-out: MALT1_Biochemical activity (Ac-LRSR-amc) IC50
T1 construct: full-length MALT1 protein (Strep-MALT1(1-824)-His) purified from baculovirus-infected insect cells; Strep (N); His (C); made in house; host or cells: baculovirus-infected insect cells
T1 sequence (Q9UDY8 1-824): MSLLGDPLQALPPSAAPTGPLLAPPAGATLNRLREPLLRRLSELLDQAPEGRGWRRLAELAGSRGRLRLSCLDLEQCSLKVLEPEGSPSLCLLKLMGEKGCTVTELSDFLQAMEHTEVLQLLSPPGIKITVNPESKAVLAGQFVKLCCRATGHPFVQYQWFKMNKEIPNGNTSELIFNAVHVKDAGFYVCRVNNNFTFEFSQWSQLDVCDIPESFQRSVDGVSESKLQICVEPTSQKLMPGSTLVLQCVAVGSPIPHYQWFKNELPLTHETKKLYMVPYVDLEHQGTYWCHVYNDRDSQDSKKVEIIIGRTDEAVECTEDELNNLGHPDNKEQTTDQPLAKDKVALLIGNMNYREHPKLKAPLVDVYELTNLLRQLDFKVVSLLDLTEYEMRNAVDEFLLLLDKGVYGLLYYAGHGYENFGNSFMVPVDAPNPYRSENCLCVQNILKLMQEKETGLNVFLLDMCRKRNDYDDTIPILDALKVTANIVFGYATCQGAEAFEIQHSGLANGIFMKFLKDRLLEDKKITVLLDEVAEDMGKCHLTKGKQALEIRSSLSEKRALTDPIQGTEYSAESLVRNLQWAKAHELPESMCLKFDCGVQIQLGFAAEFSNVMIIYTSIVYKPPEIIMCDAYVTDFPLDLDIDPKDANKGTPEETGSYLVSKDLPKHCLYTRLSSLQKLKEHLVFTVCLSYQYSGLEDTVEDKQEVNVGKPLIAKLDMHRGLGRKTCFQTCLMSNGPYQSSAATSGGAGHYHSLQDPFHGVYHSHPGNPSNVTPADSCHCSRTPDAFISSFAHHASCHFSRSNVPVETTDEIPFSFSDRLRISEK
Method: MALT1 protease activity was assessed in an in vitro assay using a tetrapeptide as substrate and full-length MALT1 protein (Strep-MALT1(1-824)-His) purified from baculovirus-infected insect cells. The tetrapeptide LRSR is coupled to AMC (7-amino-4-methylcoumarin) and provides a quenched, fluorescent substrate for the MALT1 protease (SM Biochemicals). Cleavage of AMC from the Arginine residue results in an increase in coumarin fluorescence measured at 460 nm (excitation 355 nm). The final assay buffer consisted of 10 nM FL MALT1 protein, 200 μM Ac-LRSR-AMC, 50 mM Tris pH 7.5, 0.6 M Citrate, 1 mM DTT, 1 mM EDTA, 0.05% BSA and 1.5% DMSO. Test compounds were spotted at 50 nL in 100% DMSO per well of a black 384-Proxiplate (Perkin Elmer). Test compound concentrations ranged from 30 μM to 0.5 nM using 11 dilution steps (1:3). Background signal was measured from control wells containing assay buffer without enzyme which functions as low control (LC). High control (HC) values were generated using the reaction with enzyme but no compound treatment. Compounds were pre-incubated with MALT1 enzyme for 50 minutes at RT. Substrate was added subsequently and fluorescence was measured in Labsystems fluoroskan at excitation 355 nm and emission 460 nm to determine time 0. The reaction was subsequently incubated for 4 h at RT and fluorescence was measured. For IC50 calculations, timepoint 0 was subtracted from the 4 h timepoint to correct for any potential autofluorescence of the compounds. The enzyme reaction was linear during the 4 h incubation period. Characterization of the substrate Ac-LRSR-AMC determined the Michaelis constant KM at 200 μM.
IC50 values were calculated using the following formula (Z prime should be >0.5): […]
A best-fit curve was fitted by a minimum sum of squares method to the plot of % Controlmin vs. compound concentration. From this an IC50 value (inhibitory concentration causing 50% inhibition) can be obtained. An estimate of the slope of the plot in terms of the Hill coefficient was also obtained.
Used in “Lexis Dose Response Curve Fitting” Version 1.0.

[3] = system: secretion of IL6 by OCI-LY3 ABC-DLBCL cells; assay: Human IL6 Mesoscale assay (OCI-LY3); type: cell-based; conditions: 24 h incubation, IL6 in supernatant
Method: as §1, §2, §3

Compound	IC50 [1] [nM]	IC50 [2] [nM]	IC50 [3] [nM]	IC50 ([1]; Homo sapiens) [nM]	IC50 ([3]; Homo sapiens) [nM]
CCOC(=O)COc1cncc(NC(=O)Nc2cnc(-n3nccn3)c(Cl)c2)c1C(C)OC (racemic) [Co. 14]	8130	3240	11000	–	–
COC(C)c1c(C)cncc1NC(=O)Nc1cnc(-n2nccn2)c(Cl)c1 (racemic) [Co. 20]	> 3020	4170	> 3020	–	–
COC(C)c1c(NC(=O)Nc2cnc(-n3nccn3)c(Cl)c2)cncc1C1CC1 (racemic) [Co. 28]	1100	600	1950	–	–
C=C(C)c1cncc(NC(=O)Nc2cnc(-n3nccn3)c(Cl)c2)c1C(C)OC (racemic) [Co. 29]	1780	980	1820	–	–
COC(C)c1c(NC(=O)Nc2cnc(-n3nccn3)c(Cl)c2)cncc1C(N)=O (racemic) [Co. 39]	14100	8710	> 15100	–	–
COC(C)c1c(Br)c(C)nc(C)c1NC(=O)Nc1cnc(-n2nccn2)c(Cl)c1 (racemic) [Co. 49]	1700	620	2340	–	–
COC(C)c1cc(C)ncc1NC(=O)Nc1cnc(-n2nccn2)c(Cl)c1 (racemic) [Co. 106]	5750	9120	7240	–	–
COC(C)c1c(Br)cncc1NC(=O)Nc1cnc(-n2nccn2)c(Cl)c1 (single isomer, unassigned) [Co. 18]	190	100	100	–	–
COC(C)c1c(NC(=O)Nc2cnc(-n3nccn3)c(C(F)(F)F)c2)cnc(C)c1Br (single isomer, unassigned) [Co. 59]	70	10	100	–	–
COC(C)c1c(NC(=O)Nc2ccnc(C(F)(F)F)c2)cnc(C)c1Cl (single isomer, unassigned) [Co. 65]	6610	15100	> 15000	–	–
COC(C)c1c(NC(=O)Nc2cnc(C3CC3)c(C(F)(F)F)c2)cnc(C)c1Cl (single isomer, unassigned) [Co. 68]	> 15000	> 30200	> 15000	–	–
COc1ncc(NC(=O)Nc2cnc(C)c(Br)c2C(C)OC)cc1C#N (single isomer, unassigned) [Co. 98]	2570	5890	5750	–	–
COC(C)c1c(NC(=O)Nc2cnc(-n3ncc(C(C)O)n3)c(Cl)c2)cnc(C)c1C#N (single isomer, unassigned) [Co. 114]	170	60	400	–	–
COC(C)c1c(NC(=O)Nc2cnc(-n3nccn3)c(C(F)(F)F)c2)cnc(C(F)F)c1C#N (single isomer, unassigned) [Co. 127]	40	30	60	–	–
COC(C)c1c(NC(=O)Nc2cnc(-n3nccn3)c(C(F)(F)F)c2)cnc(C(F)F)c1C#N (single isomer, unassigned) [Co. 128]	210	230	460	–	–
[2H]C([2H])([2H])Oc1cncc(NC(=O)Nc2cnc(-n3nccn3)c(C(F)(F)F)c2)c1[C@H](C)OC (single isomer, unassigned) [Co. 129]	–	1380	–	1020	2290
[2H]C([2H])([2H])Oc1cncc(NC(=O)Nc2cnc(-n3nccn3)c(C(F)(F)F)c2)c1[C@@H](C)OC (single isomer, unassigned) [Co. 130]	–	50	–	~110	190
[2H]C([2H])([2H])O[C@@H](C)c1c(NC(=O)Nc2cnc(-n3nccn3)c(C(F)(F)F)c2)cncc1OC (single isomer, unassigned) [Co. 131]	–	1020	–	~890	2340
[2H]C([2H])([2H])O[C@H](C)c1c(NC(=O)Nc2cnc(-n3nccn3)c(C(F)(F)F)c2)cncc1OC (single isomer, unassigned) [Co. 132]	–	50	–	60	150
CO[C@@H](C)c1c(NC(=O)Nc2cnc(-n3nccn3)c(C(F)(F)F)c2)cnc(C(F)F)c1Cl (single isomer, unassigned) [Co. 133]	–	550	–	310	930
CO[C@H](C)c1c(NC(=O)Nc2cnc(-n3nccn3)c(C(F)(F)F)c2)cnc(C(F)F)c1Cl (single isomer, unassigned) [Co. 134]	–	40	–	80	80
CO[C@H](C)c1c(NC(=O)Nc2cnc(OC(F)F)c(Cl)c2)cnc(N)c1Cl (single isomer, unassigned) [Co. 136]	–	60	–	30	60
COc1cncc(NC(=O)Nc2cc(C(F)(F)F)c(-n3nccn3)nc2OC)c1[C@H](C)OC (single isomer, unassigned) [Co. 137]	–	40	–	80	80
CO[C@H](C)c1c(NC(=O)Nc2cnc(-n3nccn3)c(C(F)(F)F)c2)cnc(N)c1Br (single isomer, unassigned) [Co. 138]	–	290	–	380	600
CO[C@@H](C)c1c(NC(=O)Nc2cnc(-n3nccn3)c(C(F)(F)F)c2)cnc(N)c1Br (single isomer, unassigned) [Co. 139]	–	20	–	70	~100
COc1cncc(NC(=O)Nc2cc(Cl)c(-n3nccn3)nc2OC)c1[C@@H](C)OC (single isomer, unassigned) [Co. 140]	–	~620	–	470	540
CO[C@H](C)c1c(NC(=O)Nc2cnc(OC(F)F)c(Cl)c2)cnc(C)c1C#N [Co. 71]	150	–	320	–	–
